Measured values reported in publication doi:10.1101/2022.06.29.498187v1 (bioRxiv, 2022).

Key:
[1] = biological target: T1, human GHSR1a (Homo sapiens, UniProt Q92847); experiment: NanoBiT-based homogenous binding assay; details: ghrelin-SmBiT and LEAP2-SmBiT tracers
[2] = biological target: T1, human GHSR1a; experiment: Receptor activation assay, CRE-controlled NanoLuc reporter; assay type: cell-based

T1 sequence (Q92847 whole entry): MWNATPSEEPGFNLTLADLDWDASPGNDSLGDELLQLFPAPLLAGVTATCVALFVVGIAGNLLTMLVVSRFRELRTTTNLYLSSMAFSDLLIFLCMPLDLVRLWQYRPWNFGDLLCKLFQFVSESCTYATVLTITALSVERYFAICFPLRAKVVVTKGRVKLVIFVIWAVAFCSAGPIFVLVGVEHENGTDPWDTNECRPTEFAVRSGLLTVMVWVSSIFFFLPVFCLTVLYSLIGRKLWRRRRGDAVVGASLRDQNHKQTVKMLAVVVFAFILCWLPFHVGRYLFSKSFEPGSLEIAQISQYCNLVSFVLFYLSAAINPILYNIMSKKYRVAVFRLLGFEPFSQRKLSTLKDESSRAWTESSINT

Structure (SMILES): CCCCCSC[C@H](NC(=O)[C@H](CO)NC(=O)CN)C(=O)N[C@@H](Cc1ccccc1)C(=O)N[C@@H](CC(C)C)C(=O)N[C@@H](CO)C(=O)N1CCC[C@H]1C(=O)N[C@@H](CCC(=O)O)C(=O)N[C@@H](Cc1c[nH]cn1)C(=O)N[C@@H](CCC(N)=O)C(=O)N[C@@H](CCCNC(=N)N)C(=O)N[C@H](C(=O)N[C@@H](CCC(N)=O)C(=O)N[C@@H](CCC(N)=O)C(=O)N[C@@H](CCCNC(=N)N)C(=O)N[C@@H](CCCCN)C(=O)N[C@@H](CCC(=O)O)C(=O)N[C@@H](CO)C(=O)N[C@@H](CCCCN)C(=O)N[C@@H](CCCCN)C(=O)N1CCC[C@H]1C(=O)N1CCC[C@H]1C(=O)N[C@@H](C)C(=O)N[C@@H](CCCCN)C(=O)N[C@@H](CC(C)C)C(=O)N[C@@H](CCC(N)=O)C(=O)N1CCC[C@H]1C(=O)N[C@@H](CCCNC(=N)N)C(=O)O)C(C)C [analog 1]
- fold lower receptor binding activity compared to native human ghrelin [1]: ~15 fold
- fold lower receptor activation potency compared to native human ghrelin [2]: ~7 fold
